{"source": "patent US12692221B2", "about": "(priority 2024, dated 2026)", "key": {"beta1 (h)": {"target": "T1, beta1 (h) (Homo sapiens, UniProt P08588)", "T1 construct": "expressed in transfected cells; host or cells: HEK-293 cells", "T1 sequence (P08588 whole entry)": "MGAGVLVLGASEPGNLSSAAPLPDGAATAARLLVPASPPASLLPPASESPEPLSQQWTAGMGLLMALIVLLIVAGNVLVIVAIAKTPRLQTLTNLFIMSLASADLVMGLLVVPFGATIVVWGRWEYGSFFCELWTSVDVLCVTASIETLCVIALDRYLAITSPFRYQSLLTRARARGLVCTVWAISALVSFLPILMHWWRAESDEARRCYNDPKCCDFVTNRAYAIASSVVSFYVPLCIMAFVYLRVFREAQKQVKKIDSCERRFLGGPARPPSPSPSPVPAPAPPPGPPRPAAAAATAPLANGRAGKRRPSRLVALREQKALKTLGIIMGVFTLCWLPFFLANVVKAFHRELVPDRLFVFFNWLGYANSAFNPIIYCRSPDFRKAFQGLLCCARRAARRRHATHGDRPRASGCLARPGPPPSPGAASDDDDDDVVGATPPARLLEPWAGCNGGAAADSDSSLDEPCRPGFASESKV", "experiment": "Radioligand binding beta1 (h) (agonist radioligand), [^3H](−)CGP 12177, HEK-293 cells", "method": "(§1) Methods—Binding Assays: In vitro binding assays were performed using human recombinant receptors expressed in mammalian cell lines. Receptors were expressed in either HEK-293 or CHO cells depending on the target, and assay conditions (radioligand, concentration, nonspecific competitor, temperature, and incubation time) were optimized for each receptor. All assays were conducted in triplicate, and specific binding was quantified by scintillation counting as the detection method for each listed assay.\n(§2) Specific binding was expressed as a percentage of control-specific binding, and percent inhibition was calculated using the formula in Ex. 8 above. Half-maximal inhibitory concentrations (IC50) were determined by non-linear regression analysis of the inhibition curves using the Hill equation (see Ex. 8). Inhibition constants (Ki) were calculated using the Cheng-Prusoff equation (see Ex. 8). KD values used in these calculations had been previously established for each receptor under the assay conditions (see Table 6). Data analysis was performed using software developed at Cerep and validated against SigmaPlot 4.0 for Windows."}, "alpha2A (h)": {"target": "T2, alpha2A (h) (Homo sapiens, UniProt P08913)", "T2 construct": "expressed in transfected cells; host or cells: CHO cells", "T2 sequence (P08913 1-465)": "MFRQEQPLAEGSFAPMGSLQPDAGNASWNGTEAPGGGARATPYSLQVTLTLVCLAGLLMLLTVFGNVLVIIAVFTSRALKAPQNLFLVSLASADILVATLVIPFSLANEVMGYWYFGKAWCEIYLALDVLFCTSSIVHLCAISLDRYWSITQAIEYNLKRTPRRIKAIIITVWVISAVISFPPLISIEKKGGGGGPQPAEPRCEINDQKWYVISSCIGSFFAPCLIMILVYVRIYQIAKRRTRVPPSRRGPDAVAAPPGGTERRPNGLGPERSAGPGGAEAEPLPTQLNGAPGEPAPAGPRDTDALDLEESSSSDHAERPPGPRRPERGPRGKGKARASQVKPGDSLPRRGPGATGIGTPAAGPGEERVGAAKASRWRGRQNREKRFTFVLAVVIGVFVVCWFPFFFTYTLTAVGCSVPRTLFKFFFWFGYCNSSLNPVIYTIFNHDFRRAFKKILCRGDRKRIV", "experiment": "Radioligand binding alpha2A (h) (antagonist radioligand), [^3H]RX 821002, CHO cells", "method": "as §1, §2"}, "Na^+ channel (site 2)": {"system": "Na^+ channel (site 2)", "details": "Na+ channel (site 2) (antagonist radioligand); footnote: Sodium Channel Site2 (Non-selective) Rat Ion Channel Batrachotoxin Mass Spectr. Binding"}, "[1]": {"experiment": "Photoabsorption 290-700 nm, molar extinction coefficient (photoliability)", "format": "physicochemical", "details": "wavelength of maximal absorption between 290 nm and 700 nm"}, "GR (h)": {"target": "T3, GR (h) (Homo sapiens, UniProt P04150)", "T3 construct": "human endog; endogenous in cells; host or cells: IM-9 cells", "T3 sequence (P04150 1-777)": "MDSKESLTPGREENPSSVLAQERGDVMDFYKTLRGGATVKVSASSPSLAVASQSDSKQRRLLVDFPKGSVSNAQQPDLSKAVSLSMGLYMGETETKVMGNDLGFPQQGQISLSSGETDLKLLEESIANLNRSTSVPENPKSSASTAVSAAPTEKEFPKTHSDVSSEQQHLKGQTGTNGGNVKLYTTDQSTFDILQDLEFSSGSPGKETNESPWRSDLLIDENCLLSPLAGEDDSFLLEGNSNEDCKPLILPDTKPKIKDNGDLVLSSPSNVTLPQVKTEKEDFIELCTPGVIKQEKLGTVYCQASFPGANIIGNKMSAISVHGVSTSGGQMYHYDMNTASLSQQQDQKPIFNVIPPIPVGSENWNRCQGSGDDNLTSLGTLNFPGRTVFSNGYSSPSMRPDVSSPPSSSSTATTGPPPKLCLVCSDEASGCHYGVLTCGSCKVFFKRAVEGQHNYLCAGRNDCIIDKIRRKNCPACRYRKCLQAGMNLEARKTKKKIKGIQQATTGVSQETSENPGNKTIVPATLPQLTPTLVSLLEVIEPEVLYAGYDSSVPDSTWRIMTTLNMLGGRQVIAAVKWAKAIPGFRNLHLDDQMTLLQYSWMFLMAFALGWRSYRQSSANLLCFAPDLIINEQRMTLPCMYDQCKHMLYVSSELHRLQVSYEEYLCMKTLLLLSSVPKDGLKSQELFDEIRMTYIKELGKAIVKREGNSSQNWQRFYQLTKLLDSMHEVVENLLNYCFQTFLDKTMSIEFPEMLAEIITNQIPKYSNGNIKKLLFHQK", "experiment": "Radioligand binding GR (h) (agonist radioligand), [^3H]dexamethasone, IM-9 cells"}, "MAO-A": {"target": "T4, MAO-A (Rattus norvegicus, UniProt P21396)", "T4 construct": "from tissue; host or cells: rat cerebral cortex", "T4 sequence (P21396 1-526)": "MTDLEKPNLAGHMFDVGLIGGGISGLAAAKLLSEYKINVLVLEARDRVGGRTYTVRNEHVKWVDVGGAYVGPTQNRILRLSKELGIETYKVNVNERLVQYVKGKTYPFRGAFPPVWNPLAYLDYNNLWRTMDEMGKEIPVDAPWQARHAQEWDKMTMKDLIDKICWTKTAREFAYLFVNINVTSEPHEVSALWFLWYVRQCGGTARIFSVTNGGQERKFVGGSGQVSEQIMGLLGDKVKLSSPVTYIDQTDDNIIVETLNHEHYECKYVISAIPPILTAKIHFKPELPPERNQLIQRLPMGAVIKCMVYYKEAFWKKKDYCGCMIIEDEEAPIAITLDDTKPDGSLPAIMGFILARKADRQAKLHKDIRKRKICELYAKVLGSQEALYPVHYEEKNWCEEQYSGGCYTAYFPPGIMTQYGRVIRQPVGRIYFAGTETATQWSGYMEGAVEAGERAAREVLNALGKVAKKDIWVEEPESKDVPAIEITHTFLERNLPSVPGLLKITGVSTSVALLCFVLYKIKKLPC", "experiment": "Radioligand binding MAO-A (antagonist radioligand), [^3H]Ro 41-1049, rat cerebral cortex"}}, "data": [{"molecule": "COCc1cc(CCN)c(O)cc1CC(C)C", "note": "[2CiBu-2OH-5MM, 2-(2-aminoethyl)-5-isobutyl-4-(methoxymethyl)phenol]", "values": [{"measurement": "Mean Percent Inhibition of Control Specific Binding", "setting": "beta1 (h)", "value": 84.5, "unit": "%"}, {"measurement": "Mean Percent Inhibition of Control Specific Binding", "setting": "alpha2A (h)", "value": 79.4, "unit": "%"}, {"measurement": "Mean Percent Inhibition of Control Specific Binding", "setting": "Na^+ channel (site 2)", "value": 66, "unit": "%"}, {"measurement": "MEC", "setting": "[1]", "value": 380.8, "unit": "L/mol/cm"}, {"measurement": "Mean Percent Inhibition of Control Specific Binding", "setting": "GR (h)", "value": "−3.1", "unit": "%"}, {"measurement": "Mean Percent Inhibition of Control Specific Binding", "setting": "MAO-A", "value": 7.0, "unit": "%"}]}, {"molecule": "COCCc1cc(CCN)c(OC)cc1Br", "note": "[Compound 2CB-5ME, reference compound]", "values": [{"measurement": "Mean Percent Inhibition of Control Specific Binding", "setting": "beta1 (h)", "value": 26.2, "unit": "%"}, {"measurement": "Mean Percent Inhibition of Control Specific Binding", "setting": "alpha2A (h)", "value": 73.0, "unit": "%"}, {"measurement": "Mean Percent Inhibition of Control Specific Binding", "setting": "Na^+ channel (site 2)", "value": 46.9, "unit": "%"}, {"measurement": "Mean Percent Inhibition of Control Specific Binding", "setting": "GR (h)", "value": "−0.5", "unit": "%"}, {"measurement": "Mean Percent Inhibition of Control Specific Binding", "setting": "MAO-A", "value": 5.4, "unit": "%"}]}, {"molecule": "COCc1cc(CCN)c(OC)cc1Br", "note": "[Compound 2CB-5MM, 2-(4-bromo-2-methoxy-5-(methoxymethyl)phenyl)ethan-1-amine]", "values": [{"measurement": "Mean Percent Inhibition of Control Specific Binding", "setting": "beta1 (h)", "value": 19, "unit": "%"}, {"measurement": "Mean Percent Inhibition of Control Specific Binding", "setting": "alpha2A (h)", "value": 80.2, "unit": "%"}, {"measurement": "Mean Percent Inhibition of Control Specific Binding", "setting": "Na^+ channel (site 2)", "value": 21.6, "unit": "%"}, {"measurement": "MEC", "setting": "[1]", "value": 781.9, "unit": "L/mol/cm"}, {"measurement": "Mean Percent Inhibition of Control Specific Binding", "setting": "GR (h)", "value": "−7.2", "unit": "%"}, {"measurement": "Mean Percent Inhibition of Control Specific Binding", "setting": "MAO-A", "value": 9.3, "unit": "%"}]}, {"molecule": "COCc1cc(CCN)c(OC)cc1CC(C)C", "note": "[Compound 2CiBu-5MM, 2-[4-isobutyl-2-methoxy-5-(methoxymethyl)phenyl]ethanamine]", "values": [{"measurement": "Mean Percent Inhibition of Control Specific Binding", "setting": "beta1 (h)", "value": 36.0, "unit": "%"}, {"measurement": "Mean Percent Inhibition of Control Specific Binding", "setting": "alpha2A (h)", "value": 88.5, "unit": "%"}, {"measurement": "Mean Percent Inhibition of Control Specific Binding", "setting": "Na^+ channel (site 2)", "value": 70.4, "unit": "%"}, {"measurement": "MEC", "setting": "[1]", "value": 283.6, "unit": "L/mol/cm"}, {"measurement": "Mean Percent Inhibition of Control Specific Binding", "setting": "GR (h)", "value": "−3.9", "unit": "%"}, {"measurement": "Mean Percent Inhibition of Control Specific Binding", "setting": "MAO-A", "value": 4.1, "unit": "%"}]}]}
